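Results reflect a 48-hour exposure of cells in 96-well plates to compound at five concentrations. TGI: total growth inhibition.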
Experiments:
Experiment in all cases: inhibition of tumour cell growth, NCI panel, 48 h
DMS 114 small cell lung = system: DMS 114 small cell lung
NCI-H460 lung = system: NCI-H460 lung
OVCAR-3 ovarian = system: OVCAR-3 ovarian
HCT-15 colon = system: HCT-15 colon
NCI-H522 lung = system: NCI-H522 lung
EKVX NSCLC = system: EKVX NSCLC
UO-31 renal = system: UO-31 renal
M19-MEL melanoma = system: M19-MEL melanoma
SNB-75 CNS = system: SNB-75 CNS
HT29 colon = system: HT29 colon
MOLT-4 leukemia = system: MOLT-4 leukemia
HOP-92 NSCLC = system: HOP-92 NSCLC
SR leukemia = system: SR leukemia
HL-60(TB) leukemia = system: HL-60(TB) leukemia
TK-10 renal = system: TK-10 renal
ACHN renal = system: ACHN renal
SF-268 CNS = system: SF-268 CNS
SK-MEL-28 melanoma = system: SK-MEL-28 melanoma
UACC-62 melanoma = system: UACC-62 melanoma
LOX IMVI melanoma = system: LOX IMVI melanoma
SF-539 CNS = system: SF-539 CNS
RPMI-8226 leukemia = system: RPMI-8226 leukemia
UACC-257 melanoma = system: UACC-257 melanoma
KM12 colon = system: KM12 colon
786-0 renal = system: 786-0 renal
K-562 leukemia = system: K-562 leukemia
DLD-1 colon = system: DLD-1 colon
HCT-116 colon = system: HCT-116 colon
SF-295 CNS = system: SF-295 CNS
OVCAR-4 ovarian = system: OVCAR-4 ovarian
CCRF-CEM leukemia = system: CCRF-CEM leukemia
NCI-H226 lung = system: NCI-H226 lung
CAKI-1 renal = system: CAKI-1 renal
KM20L2 colon = system: KM20L2 colon
A498 renal = system: A498 renal
SW-620 colon = system: SW-620 colon
A549 NSCLC = system: A549 NSCLC
OVCAR-8 ovarian = system: OVCAR-8 ovarian
LXFL 529 NSCLC = system: LXFL 529 NSCLC
HCC-2998 colon = system: HCC-2998 colon
COLO 205 colon = system: COLO 205 colon
SK-MEL-5 melanoma = system: SK-MEL-5 melanoma
SN12C renal = system: SN12C renal
SNB-19 CNS = system: SNB-19 CNS
NCI-H23 lung = system: NCI-H23 lung
SK-OV-3 ovarian = system: SK-OV-3 ovarian
HOP-62 NSCLC = system: HOP-62 NSCLC
SK-MEL-2 melanoma = system: SK-MEL-2 melanoma
U251 CNS = system: U251 CNS
DMS 273 small cell lung = system: DMS 273 small cell lung
IGROV1 ovarian = system: IGROV1 ovarian
SNB-78 CNS = system: SNB-78 CNS
MDA-MB-435 = system: MDA-MB-435
MALME-3M melanoma = system: MALME-3M melanoma
MDA-MB-231 breast = system: MDA-MB-231 breast
M14 melanoma = system: M14 melanoma
RXF 393 renal = system: RXF 393 renal
BT-549 breast = system: BT-549 breast
OVCAR-5 ovarian = system: OVCAR-5 ovarian
MDA-N = system: MDA-N
DU-145 prostate = system: DU-145 prostate
PC-3 prostate = system: PC-3 prostate
T-47D breast = system: T-47D breast
NCI/ADR-RES ovarian = system: NCI/ADR-RES ovarian
HS 578T breast = system: HS 578T breast
MCF7 breast = system: MCF7 breast

Structure (SMILES): CCCCCn1cnc2c1S(=O)(=O)N(C)C(NC(=O)c1ccccc1)=N2
- TGI (DMS 114 small cell lung): > 100 µM
- TGI (NCI-H460 lung): > 100 µM
- TGI (OVCAR-3 ovarian): > 100 µM
- TGI (HCT-15 colon): > 100 µM
- TGI (NCI-H522 lung): > 100 µM
- TGI (EKVX NSCLC): > 100 µM
- TGI (UO-31 renal): > 100 µM
- TGI (M19-MEL melanoma): > 100 µM
- TGI (SNB-75 CNS): > 100 µM
- TGI (HT29 colon): > 100 µM
- TGI (MOLT-4 leukemia): > 100 µM
- TGI (HOP-92 NSCLC): > 100 µM
- TGI (SR leukemia): > 100 µM
- TGI (HL-60(TB) leukemia): > 100 µM
- TGI (TK-10 renal): > 100 µM
- TGI (ACHN renal): > 100 µM
- TGI (SF-268 CNS): > 100 µM
- TGI (SK-MEL-28 melanoma): > 100 µM
- TGI (UACC-62 melanoma): > 100 µM
- TGI (LOX IMVI melanoma): > 100 µM
- TGI (SF-539 CNS): > 100 µM
- TGI (RPMI-8226 leukemia): > 100 µM
- TGI (UACC-257 melanoma): > 100 µM
- TGI (KM12 colon): > 100 µM
- TGI (786-0 renal): > 100 µM
- TGI (K-562 leukemia): > 100 µM
- TGI (DLD-1 colon): > 100 µM
- TGI (HCT-116 colon): > 100 µM
- TGI (SF-295 CNS): > 100 µM
- TGI (OVCAR-4 ovarian): > 100 µM
- TGI (CCRF-CEM leukemia): > 100 µM
- TGI (NCI-H226 lung): > 100 µM
- TGI (CAKI-1 renal): > 100 µM
- TGI (KM20L2 colon): > 100 µM
- TGI (A498 renal): > 100 µM
- TGI (SW-620 colon): > 100 µM
- TGI (A549 NSCLC): > 100 µM
- TGI (OVCAR-8 ovarian): > 100 µM
- TGI (LXFL 529 NSCLC): > 100 µM
- TGI (HCC-2998 colon): > 100 µM
- TGI (COLO 205 colon): > 100 µM
- TGI (SK-MEL-5 melanoma): > 100 µM
- TGI (SN12C renal): > 100 µM
- TGI (SNB-19 CNS): > 100 µM
- TGI (NCI-H23 lung): > 100 µM
- TGI (SK-OV-3 ovarian): > 100 µM
- TGI (HOP-62 NSCLC): > 100 µM
- TGI (SK-MEL-2 melanoma): > 100 µM
- TGI (U251 CNS): > 100 µM
- TGI (DMS 273 small cell lung): > 100 µM
- TGI (IGROV1 ovarian): > 100 µM
- TGI (SNB-78 CNS): > 100 µM

Structure (SMILES): CC(OCc1ccccc1)C(NC(=O)C1CSSCC(NC(=O)C(Cc2ccccc2)NC(=O)OCc2ccccc2)C(=O)NC(Cc2ccccc2)C(=O)NC(Cc2cn(C=O)c3ccccc23)C(=O)NC(CCCCNC(=O)OCc2ccccc2)C(=O)NC(C(C)OCc2ccccc2)C(=O)N1)C(N)=O (centres undefined)
- TGI (NCI-H460 lung): > 61.8 µM
- TGI (OVCAR-3 ovarian): 34 µM
- TGI (HCT-15 colon): > 100 µM
- TGI (NCI-H522 lung): 38.5 µM
- TGI (EKVX NSCLC): > 100 µM
- TGI (UO-31 renal): > 100 µM
- TGI (MDA-MB-435): > 100 µM
- TGI (MALME-3M melanoma): > 90.4 µM
- TGI (SNB-75 CNS): > 71.3 µM
- TGI (HT29 colon): > 100 µM
- TGI (MOLT-4 leukemia): > 37.9 µM
- TGI (HOP-92 NSCLC): > 100 µM
- TGI (SR leukemia): > 93.4 µM
- TGI (MDA-MB-231 breast): 37.3 µM
- TGI (HL-60(TB) leukemia): 2.89 µM
- TGI (TK-10 renal): > 84.8 µM
- TGI (ACHN renal): > 100 µM
- TGI (SF-268 CNS): > 100 µM
- TGI (SK-MEL-28 melanoma): > 100 µM
- TGI (M14 melanoma): > 79.1 µM
- TGI (UACC-62 melanoma): > 100 µM
- TGI (LOX IMVI melanoma): 47 µM
- TGI (RXF 393 renal): > 100 µM
- TGI (BT-549 breast): > 66.5 µM
- TGI (OVCAR-5 ovarian): > 100 µM
- TGI (SF-539 CNS): > 100 µM
- TGI (RPMI-8226 leukemia): 53.3 µM
- TGI (UACC-257 melanoma): > 93 µM
- TGI (KM12 colon): > 55.5 µM
- TGI (786-0 renal): > 86.9 µM
- TGI (K-562 leukemia): > 100 µM
- TGI (HCT-116 colon): 98.7 µM
- TGI (MDA-N): > 100 µM
- TGI (SF-295 CNS): > 100 µM
- TGI (DU-145 prostate): > 100 µM
- TGI (OVCAR-4 ovarian): > 79.3 µM
- TGI (CCRF-CEM leukemia): > 100 µM
- TGI (NCI-H226 lung): > 100 µM
- TGI (CAKI-1 renal): > 100 µM
- TGI (PC-3 prostate): > 52.4 µM
- TGI (A498 renal): 63.5 µM
- TGI (SW-620 colon): > 54.5 µM
- TGI (A549 NSCLC): > 100 µM
- TGI (OVCAR-8 ovarian): > 100 µM
- TGI (HCC-2998 colon): > 32.5 µM
- TGI (COLO 205 colon): 10.5 µM
- TGI (T-47D breast): > 63.8 µM
- TGI (SK-MEL-5 melanoma): > 73.8 µM
- TGI (SN12C renal): > 100 µM
- TGI (NCI/ADR-RES ovarian): > 100 µM
- TGI (SNB-19 CNS): > 100 µM
- TGI (NCI-H23 lung): > 100 µM
- TGI (SK-OV-3 ovarian): > 100 µM
- TGI (HOP-62 NSCLC): > 100 µM
- TGI (HS 578T breast): > 100 µM
- TGI (MCF7 breast): 41.1 µM
- TGI (SK-MEL-2 melanoma): 28.7 µM
- TGI (U251 CNS): > 70.7 µM
- TGI (IGROV1 ovarian): > 100 µM

Structure (SMILES): c1ccc2nc3cc4c(cc3nc2c1)NC12CCCCC1CC1=C(CCCC1)N42 (centres undefined)
- TGI (NCI-H460 lung): > 10 µM
- TGI (OVCAR-3 ovarian): 5.03 µM
- TGI (HCT-15 colon): > 10 µM
- TGI (NCI-H522 lung): 8.37 µM
- TGI (EKVX NSCLC): > 10 µM
- TGI (MDA-MB-435): 3.9 µM
- TGI (MALME-3M melanoma): 5.33 µM
- TGI (SNB-75 CNS): 7.06 µM
- TGI (HT29 colon): > 10 µM
- TGI (MOLT-4 leukemia): 5.25 µM
- TGI (HOP-92 NSCLC): > 10 µM
- TGI (SR leukemia): 1.51 µM
- TGI (MDA-MB-231 breast): > 10 µM
- TGI (HL-60(TB) leukemia): 8.31 µM
- TGI (TK-10 renal): > 10 µM
- TGI (ACHN renal): > 10 µM
- TGI (SF-268 CNS): > 10 µM
- TGI (SK-MEL-28 melanoma): > 10 µM
- TGI (M14 melanoma): 6.35 µM
- TGI (UACC-62 melanoma): 9.63 µM
- TGI (LOX IMVI melanoma): > 10 µM
- TGI (RXF 393 renal): 6.3 µM
- TGI (BT-549 breast): 4.72 µM
- TGI (OVCAR-5 ovarian): > 10 µM
- TGI (SF-539 CNS): 7.7 µM
- TGI (RPMI-8226 leukemia): 5.52 µM
- TGI (UACC-257 melanoma): 7.03 µM
- TGI (KM12 colon): 8.14 µM
- TGI (786-0 renal): > 10 µM
- TGI (K-562 leukemia): 5.5 µM
- TGI (HCT-116 colon): > 10 µM
- TGI (MDA-N): 7.06 µM
- TGI (SF-295 CNS): > 10 µM
- TGI (DU-145 prostate): > 10 µM
- TGI (OVCAR-4 ovarian): 6.96 µM
- TGI (CCRF-CEM leukemia): 4.9 µM
- TGI (NCI-H226 lung): 6.57 µM
- TGI (CAKI-1 renal): > 10 µM
- TGI (PC-3 prostate): 6.64 µM
- TGI (A498 renal): > 10 µM
- TGI (SW-620 colon): > 10 µM
- TGI (A549 NSCLC): > 10 µM
- TGI (OVCAR-8 ovarian): > 10 µM
- TGI (HCC-2998 colon): > 10 µM
- TGI (COLO 205 colon): 3.6 µM
- TGI (T-47D breast): > 10 µM
- TGI (SK-MEL-5 melanoma): 5.16 µM
- TGI (SN12C renal): 6.48 µM
- TGI (NCI/ADR-RES ovarian): > 10 µM
- TGI (SNB-19 CNS): > 10 µM
- TGI (NCI-H23 lung): > 10 µM
- TGI (SK-OV-3 ovarian): > 10 µM
- TGI (HOP-62 NSCLC): > 10 µM
- TGI (HS 578T breast): 8.04 µM
- TGI (MCF7 breast): > 10 µM
- TGI (SK-MEL-2 melanoma): 9.53 µM
- TGI (U251 CNS): > 10 µM
- TGI (IGROV1 ovarian): > 10 µM
